Assay results as given in patent publication US20140357577A1, “HIV Membrane Fusion Inhibitors” (priority 2011, published 2014).
Starred links: 1 amine or outer side, 2 acyl side, 3 side chain; linkers in the order of their positions; H or OH if unused. *: point of attachment. Palmitoyl = CCCCCCCCCCCCCCCC(=O)*; Suc = O=C(CCC(=O)[*:2])[*:1]

Legend:
[1] = tested on: HIV wild type virus strain IIIB; test: Standard Anti-Viral-Experiment (AVE), HIV-1 replication assay in MT4-LTR-EGFP cells, wild type IIIB; assay type: cell-based; conditions: 3 days, EGFP signal
Description: • Standard Anti-Viral-Experiment “AVE” (wild type HIV strain IIIB+HIV strain HXB2D side directed mutants V38A and Q40H)
The HIV-1 replication assay measures virus replication (HIV wild type virus strain 111B or HXB2D, or a HIV mutant virus strain HXB2D with mutation V38A or Q40H in the gp41 gene) as an induction of enhanced green fluorescent protein (EGFP) expression. The indicator MT4-LTR-EGFP cells contain an EGFP gene under the control of the HIV-1 LTR promoter sequence. Successful HIV-1 infection results in viral Tat protein expression and subsequent induction of EGFP expression. Compounds/peptides inhibiting HIV-1 infection are expected to reduce EGFP expression as compared to the untreated HIV-infected control.
Serial 4-fold dilutions of test compounds/peptides were mixed with HIV-1 (IIIB, HXB2D, or a HXB2D mutant virus (V38A or Q40H)) and MT4-LTR-EGFP cells and incubated at 37° C. After 3 days, the wells were examined for EGFP expression using an argon laser-scanning microscope. The effective compound/peptide concentration inhibiting 50% of the virus-induced EGFP signal (EC50) was determined by linear interpolation of the EGFP signal vs. logarithm of the compound concentration; (T20, C34 and Sifuvirtide were added as reference compounds). For the V38A and Q40H mutant viruses, results were reported as a fold change in EC50, as compared with a drug-susceptible wild type strain HXB2D, which forms the backbone of the mutant virus. • Standard AVE (50% Human Serum)

HIV-IIIB + 50% HS = test: Standard AVE (50% Human Serum), HIV-1 replication assay in MT4-LTR-EGFP cells; assay type: cell-based; conditions: fold change vs EC50 in the assay without human serum
Description: The HIV-1 replication assay (with 50% human serum) measures virus replication as an induction of enhanced green fluorescent protein (EGFP) expression, in the presence of 50% human serum. The indicator MT4-LTR-EGFP cells contain an EGFP gene under the control of the HIV-1 LTR promoter sequence. Successful HIV-1 infection results in viral Tat protein expression and subsequent induction of EGFP expression. Compounds/peptides inhibiting HIV-1 infection are expected to reduce EGFP expression as compared to the untreated HIV-infected control. Compounds/peptides binding to human serum are expected to have a reduced activity for inhibiting the virus in the assay.
Serial 4-fold dilutions of test compounds/peptides were mixed with HIV-1 and MT4-LTR-EGFP cells and incubated at 37° C., in the presence of 50% human serum. After 3 days, the wells were examined for EGFP expression using an argon laser-scanning microscope. The effective compound/peptide concentration inhibiting 50% of the virus-induced EGFP signal (EC50) was determined by linear interpolation of the EGFP signal vs. logarithm of the compound concentration; T20, C34 and Sifuvirtide were added as reference compounds. Results were reported as a fold change in EC50, as compared with the acquired EC50 in the assay without human serum.

Substance	EC50 [1]	HIV-IIIB + 50% HS (Fold change in EC50) (HIV-IIIB + 50% HS)
AC-ACYAACIEALIRAAREQQEKNEAALR-NH2 [Peptide 84]	13 nM	4
Ac-ACYAACIEALIRAAQEQQEKNEAALR-NH2 [Peptide 65]	17 nM	1
ANYLALIEALIRAAQEQQEKNEAALR [Peptide 6]	5 nM	0.7
Suc-ANYLALIEALIRAAQEQQEKNEAAL-NH2 (SMILES CC[C@H](C)[C@H](NC(=O)[C@H](CC(C)C)NC(=O)[C@H](C)NC(=O)[C@H](CCC(=O)O)NC(=O)[C@@H](NC(=O)[C@H](CC(C)C)NC(=O)[C@H](C)NC(=O)[C@H](CC(C)C)NC(=O)[C@H](Cc1ccc(O)cc1)NC(=O)[C@H](CC(N)=O)NC(=O)[C@H](C)NC(=O)CCC(=O)O)[C@@H](C)CC)C(=O)N[C@@H](CCCNC(=N)N)C(=O)N[C@@H](C)C(=O)N[C@@H](C)C(=O)N[C@@H](CCC(N)=O)C(=O)N[C@@H](CCC(=O)O)C(=O)N[C@@H](CCC(N)=O)C(=O)N[C@@H](CCC(N)=O)C(=O)N[C@@H](CCC(=O)O)C(=O)N[C@@H](CCCCN)C(=O)N[C@@H](CC(N)=O)C(=O)N[C@@H](CCC(=O)O)C(=O)N[C@@H](C)C(=O)N[C@@H](C)C(=O)N[C@@H](CC(C)C)C(N)=O) [Peptide 1]	4 nM	0.4
ENYTRQIYRILEESQEQQDRNERDLL [Slfuvlrtlde-PBD, reference compound]	36400 nM	0.8
Ac-aCYAACIEALIRAAQEQQEKNEAALr-NH2 [Peptide 75]	29 nM	4
Ac-CYAACIEALIRAAQEQQEKNEAALR-NH2 [Peptide 22]	35 nM	2
Suc-ENYLRLIEELIRKAQEQQEKNEAALRGSGK(palmitoyl)-NH2 (Suc-ENYLRLIEELIRKAQEQQEKNEAALRGSGK(Palmitoyl)-NH2; SMILES CCCCCCCCCCCCCCCC(=O)NCCCC[C@H](NC(=O)CNC(=O)[C@H](CO)NC(=O)CNC(=O)[C@H](CCCNC(=N)N)NC(=O)[C@H](CC(C)C)NC(=O)[C@H](C)NC(=O)[C@H](C)NC(=O)[C@H](CCC(=O)O)NC(=O)[C@H](CC(N)=O)NC(=O)[C@H](CCCCN)NC(=O)[C@H](CCC(=O)O)NC(=O)[C@H](CCC(N)=O)NC(=O)[C@H](CCC(N)=O)NC(=O)[C@H](CCC(=O)O)NC(=O)[C@H](CCC(N)=O)NC(=O)[C@H](C)NC(=O)[C@H](CCCCN)NC(=O)[C@H](CCCNC(=N)N)NC(=O)[C@@H](NC(=O)[C@H](CC(C)C)NC(=O)[C@H](CCC(=O)O)NC(=O)[C@H](CCC(=O)O)NC(=O)[C@@H](NC(=O)[C@H](CC(C)C)NC(=O)[C@H](CCCNC(=N)N)NC(=O)[C@H](CC(C)C)NC(=O)[C@H](Cc1ccc(O)cc1)NC(=O)[C@H](CC(N)=O)NC(=O)[C@H](CCC(=O)O)NC(=O)CCC(=O)O)[C@@H](C)CC)[C@@H](C)CC)C(N)=O) [Peptide 55]	0.05 nM	3
Ac-ACYIACIEALIRAAQEQQEKNEAALR-NH2 [Peptide 57]	4 nM	2
Suc-ECYLRCIEELIRKAQEQQEKNEAALRGSGK(palmitoyl)-NH2 (Suc-ECYLRCIEELIRKAQEQQEKNEAALRGSGK(Palmitoyl)-NH2; cysteine pairing not given here) [Peptide 88]	0.06 nM	3
Ac-ACYVACIEALIRAAQEQQEKNEAALR-NH2 [Peptide 62]	10 nM	2
Ac-ACYLACIEALIRAAQEQQEKNEAALR-NH2 [Peptide 56]	4 nM	2
Ac-ACYAACIEELIRKAQEQQEKNEAALR-NH2 [Peptide 72]	15 nM	0.6
Ac-ACYAACIEALIRAAQEQQEKNEALLR-NH2 [Peptide 73]	21 nM	3
Ac-ACYLACIEALIRAAQEQQEKNEAALL-NH2 [Peptide 54]	3 nM	2
Ac-ACYIACIEALIRAAQEQQEKNEAALR-NH2 [Peptide 58]	4 nM	6
